Measurements published in US11896646B2, “Formulated and/or co-formulated liposome compositions containing toll-like receptor (“TLR”) agonist prodrugs useful in the treatment of cancer and methods thereof” (Nammi Therapeutics, Inc., priority 2020, dated 2024).

Legend:
human TLR8 = target: T1, human TLR8 (Homo sapiens, UniProt Q9NR97); experiment: HEK-Blue TLR8 SEAP reporter / QUANTI-Blue assay (Example 20); format: cell-based; details: HEK-Blue TLR8 cells, 24 hr incubation, different concentration
T1 construct: host or cells: HEK-Blue hTLR8 (HEK 293)
T1 sequence (Q9NR97 27-1041): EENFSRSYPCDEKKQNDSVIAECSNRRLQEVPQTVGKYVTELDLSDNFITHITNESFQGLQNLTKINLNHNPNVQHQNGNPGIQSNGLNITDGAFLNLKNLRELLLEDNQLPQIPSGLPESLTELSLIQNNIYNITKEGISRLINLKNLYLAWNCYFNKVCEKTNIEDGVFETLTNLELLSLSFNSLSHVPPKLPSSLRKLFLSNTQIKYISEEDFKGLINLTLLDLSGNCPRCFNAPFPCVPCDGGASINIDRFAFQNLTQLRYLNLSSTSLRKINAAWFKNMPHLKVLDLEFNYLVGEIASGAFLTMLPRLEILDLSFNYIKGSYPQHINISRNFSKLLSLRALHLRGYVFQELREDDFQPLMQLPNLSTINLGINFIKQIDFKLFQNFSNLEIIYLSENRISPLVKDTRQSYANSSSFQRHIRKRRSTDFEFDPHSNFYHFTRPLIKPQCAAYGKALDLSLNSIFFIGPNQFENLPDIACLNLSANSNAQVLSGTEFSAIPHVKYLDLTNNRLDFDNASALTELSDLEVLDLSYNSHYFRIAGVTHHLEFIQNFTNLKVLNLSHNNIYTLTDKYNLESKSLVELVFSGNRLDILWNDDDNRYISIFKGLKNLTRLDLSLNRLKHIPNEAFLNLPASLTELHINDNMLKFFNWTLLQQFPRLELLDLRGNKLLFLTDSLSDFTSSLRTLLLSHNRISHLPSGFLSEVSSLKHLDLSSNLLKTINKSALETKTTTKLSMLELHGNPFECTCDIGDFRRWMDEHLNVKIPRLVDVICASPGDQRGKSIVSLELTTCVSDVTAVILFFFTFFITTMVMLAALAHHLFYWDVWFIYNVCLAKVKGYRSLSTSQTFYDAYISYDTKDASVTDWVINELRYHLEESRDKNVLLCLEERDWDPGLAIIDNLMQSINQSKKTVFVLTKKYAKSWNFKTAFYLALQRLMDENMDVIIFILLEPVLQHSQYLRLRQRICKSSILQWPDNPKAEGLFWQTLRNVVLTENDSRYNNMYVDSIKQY
Description: (§1) In another experiment, in vitro biological activity of LNP-TR3 and to further confirm targeting of TLR7 and not targeting TLR8, the following experiment(s) were performed using a RAW-Blue™ (NF-κB/AP-1 inducible secreted embryonic alkaline phosphatase (SEAP) reporter gene) Cells and QUANTI-Blue™ (alkaline phosphatase assay), HEK-Blue™ (HEK 293 cell line expressing a TLR gene and an NF-κB/AP-1 inducible secreted embryonic alkaline phosphatase (SEAP) reporter gene), and hTLR8 cell line assay (InvivoGen, San Diego, CA). Briefly, despite Raw Blue™ (NF-κB/AP-1 inducible secreted embryonic alkaline phosphatase (SEAP) reporter gene) cells that express a variety of human Toll Like Receptors (TLRs) (including TLR7/8 but with the exception of TLR5) hTLR8 cells dominantly express the human TLR8. Additionally, an NE κB/AP-1-inducible SEAP (secreted embryonic alkaline phosphatase) reporter gene were used. Stimulation of these cells with TR3 lead to NF-κB activation through TLR8 which is measured by detection of SEAP levels.

TLRs in RAW-Blue cells = experiment: RAW-Blue SEAP reporter / QUANTI-Blue assay (Example 20); format: cell-based, mouse; details: 24 hr incubation, different concentration
Description: as §1, with “Additionally, an NE κB/AP-1-inducible SEAP (secreted embryonic alkaline phosphatase) reporter gene were used.” left out
RAW-Blue™ (NF-κB/AP-1 inducible secreted embryonic alkaline phosphatase (SEAP) reporter gene) Cells were incubated with TR5, LNP-TR5, TR3, TR3+Stearic Acid, and LNP-TR3 at different concentration. After twenty-four (24) hr. incubation with the compounds, TLR stimulation was assessed by measuring the levels of SEAP optimal density (OD) using a QUANTI-Blue™ (alkaline phosphatase assay) assay. […]

TLR4 = target: T2, TLR4 (Mus musculus, UniProt Q9QUK6); experiment: RAW-Blue SEAP reporter / QUANTI-Blue assay, TLR4 (Example 18); format: cell-based; details: RAW-Blue cells, 24 hr incubation, different concentration
T2 construct: host or cells: RAW-Blue cells
T2 sequence (Q9QUK6 26-835): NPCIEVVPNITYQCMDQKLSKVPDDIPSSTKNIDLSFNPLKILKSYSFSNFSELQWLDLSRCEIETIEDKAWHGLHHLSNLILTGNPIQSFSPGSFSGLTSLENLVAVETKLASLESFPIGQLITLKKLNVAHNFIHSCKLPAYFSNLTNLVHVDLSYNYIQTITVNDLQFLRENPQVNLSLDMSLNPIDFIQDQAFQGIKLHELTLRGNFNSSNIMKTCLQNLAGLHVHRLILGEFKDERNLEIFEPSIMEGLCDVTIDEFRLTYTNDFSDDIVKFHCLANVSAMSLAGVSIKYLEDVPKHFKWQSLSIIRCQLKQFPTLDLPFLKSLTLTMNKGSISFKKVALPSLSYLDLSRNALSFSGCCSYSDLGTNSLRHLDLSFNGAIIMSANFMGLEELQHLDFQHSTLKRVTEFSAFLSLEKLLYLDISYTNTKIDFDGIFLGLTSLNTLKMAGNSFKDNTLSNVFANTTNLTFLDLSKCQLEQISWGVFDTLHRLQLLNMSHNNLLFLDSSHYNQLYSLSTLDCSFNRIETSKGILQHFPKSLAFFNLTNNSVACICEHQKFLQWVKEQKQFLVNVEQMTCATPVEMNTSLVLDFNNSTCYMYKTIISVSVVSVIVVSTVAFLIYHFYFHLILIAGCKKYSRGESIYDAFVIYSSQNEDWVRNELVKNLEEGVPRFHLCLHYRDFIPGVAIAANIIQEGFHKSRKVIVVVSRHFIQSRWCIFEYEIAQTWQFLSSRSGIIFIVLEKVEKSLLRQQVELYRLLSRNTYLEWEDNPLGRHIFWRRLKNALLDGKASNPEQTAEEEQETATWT
T2 sequence (Q9JHF9 19-160 partner): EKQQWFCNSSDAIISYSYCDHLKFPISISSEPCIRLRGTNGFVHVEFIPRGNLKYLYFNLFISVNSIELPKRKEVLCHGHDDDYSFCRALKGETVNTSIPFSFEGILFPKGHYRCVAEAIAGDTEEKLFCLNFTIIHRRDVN
Description: In another experiment, in vitro biological activity of LNP-TR8 and to further confirm targeting of TLR4, the following experiment(s) were performed using a RAW-Blue™ (NF-[…]/AP-1 inducible secreted embryonic alkaline phosphatase (SEAP) reporter gene) Cells and QUANTI-Blue™ (alkaline phosphatase assay) assay (InvivoGen, San Diego, CA). Briefly, Raw Blue™ (NF-κB/AP-1 inducible secreted embryonic alkaline phosphatase (SEAP) reporter gene) cells that express human Toll Like Receptors (TLRs) (with the exception of TLR5) and an NF-κB/AP-1-inducible SEAP (secreted embryonic alkaline phosphatase) reporter gene were used. Stimulation of these cells with TR8 lead to NF-κB activation through TLR4 which is measured by detection of SEAP levels. RAW-Blue™ (NF-κB/AP-1 inducible secreted embryonicalkaline phosphatase (SEAP) reporter gene) Cells were incubated with TR8 and LNP-TR8 at different concentration. After twenty-four (24) hr. incubation with the compounds, TLR stimulation was assessed by measuring the levels of SEAP optimal density (OD) using a QUANTI-Blue™ (alkaline phosphatase assay) assay. ODs were normalized to the control (untreated) group. […] (See, FIG. 26).

TLR stimulation (SEAP OD normalized to untreated control) (TLR4)	Compound	TLR stimulation (SEAP OD normalized to untreated control) (human TLR8)	TLR stimulation (SEAP OD normalized to untreated control) (TLRs in RAW-Blue cells)
	CCCCCCCCCCCCCCCCCCS(=O)(=O)NCCCCn1c(CC)nc2c(N)nc3ccccc3c21 [TR3+Stearic Acid]	only TR5 in prodrug and liposome form were able to stimulate the cells	stimulated TLRs
could cause stimulation of TLR4	Monophosphoryl Lipid A (Synthetic) [TR8]		
